Reference: PubChem BioAssay AID179 (DTP/NCI, 2004)
Calls of active or inactive are those of the source.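 Rule for the calls: active = compounds giving half or more protection of infected cells from virus-caused growth loss, again on retest; inactive = the rest.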

Test system: CEM cells HIV-1 protection, formazan growth assay
Assay: NCI AIDS Antiviral Assay
Settings: for IC50: measured here: growth of uninfected CEM cells
Outline: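 Soluble formazan readout of cell growth; CEM cells ± HIV-1; 5 drug concs. ≥50% protection → retest; ≥50% again = moderately active; reproducible 100% = confirmed active.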

SMILES: COC(=O)[C@@H]1CC2(CCOCc3ccccc3)C=CCN3CC[C@@]1(c1ccccc1NC(=O)C(C)(C)C)C32 (stereo partly specified)
- EC50: > 126 µM
- IC50: > 126 µM

SMILES: O=C(O)c1cc(N=Nc2ccc(CCc3ccc(N=Nc4cc(C(=O)O)c(O)cc4O)cc3S(=O)(=O)O)c(S(=O)(=O)O)c2)c(O)cc1O
- EC50: 70.8 µM
- IC50: 135 µM

SMILES: O=[N+]([O-])c1cc2c(c([N+](=O)[O-])c1)NCc1ccccc1O2
- EC50: > 200 µM
- IC50: > 200 µM

SMILES: CN1C(=O)C2(C)SSC1(C)C(=O)N2C
- EC50: > 200 µM
- IC50: 12 µM

SMILES: O=C1C(=O)c2ccccc2C(O)=C1Sc1ccc(Cl)cc1
- EC50: > 200 µM
- IC50: 17.4 µM

SMILES: Cc1ccc(NC(=O)CC2Sc3ccccc3NC2=O)c(C)c1 (stereo unspecified)
- EC50: > 79.4 µM
- IC50: 38.9 µM

SMILES: CC(C)CCC[C@@H](C)C1CCC2[C@@H]3CC=C4C[C@@H](C(=O)NCC[N+](C)(C)CCCS(=O)(=O)[O-])CC[C@]4(C)C3CC[C@@]21C (stereo partly specified)
- outcome: inactive

SMILES: CO/N=C1/c2sccc2[C@H](NC(=O)CNC(=O)OC(C)(C)C)[C@@H]1O
- EC50: > 200 µM
- IC50: > 200 µM

SMILES: c1ccc2c(c1)[nH]c1cnc3c4ncccc4[nH]c3c12
- outcome: inactive

SMILES: CN[C@H]1CCc2cc(OC)c(OC)c(OC)c2-c2ccc(OC)c(=O)cc21
- outcome: inactive

SMILES: NC1c2c(Br)sc(N3CCCC3)c2C(=O)C1O (stereo unspecified)
- EC50: > 200 µM
- IC50: > 200 µM

SMILES: O=C1c2sccc2-c2cccc3cccc1c23
- EC50: > 63.1 µM
- IC50: 30.9 µM

SMILES: O=c1[nH]c2cc(Cl)c(Br)cc2o1
- EC50: 112 µM
- IC50: 204 µM

SMILES: OCCC[N+]12CCCN1CCC2
- EC50: > 200 µM
- IC50: > 200 µM

SMILES: CCOC(=O)c1sc(N/N=C2\NC(=O)/C(=C/c3ccc([N+](=O)[O-])cc3)S2)nc1C
- EC50: > 200 µM
- IC50: 135 µM

SMILES: O=C(/C=C/c1ccc(O)c(O)c1)O[C@@H](C(=O)O)[C@@H](OC(=O)/C=C/c1ccc(O)c(O)c1)C(=O)O
- EC50: > 200 µM
- IC50: 17 µM

SMILES: CN1CCN(C2=Nc3ccccc3Cc3ccccc32)CC1
- EC50: > 170 µM
- IC50: 64.6 µM

SMILES: O=[N+]([O-])c1c(F)c(F)c2c(c1F)Nc1ccccc1S2
- EC50: > 200 µM
- IC50: 3.02 µM

SMILES: Cc1ccc(Nc2nc(C)c(C(=O)CC(=O)C(=O)Nc3c(C)cccc3C(C)(C)C)s2)cc1
- EC50: > 200 µM
- IC50: > 200 µM

SMILES: COC(=O)[C@@H]1C[C@]2(CC=C(C)C)c3ccccc3N(S(=O)(=O)c3ccccc3)[C@@H]2N1C(=O)OC
- EC50: > 200 µM
- IC50: 20 µM

SMILES: O=C(O)C1C2c3ccccc3C(c3ccccc32)C1C(=O)O (stereo unspecified)
- EC50: > 851 µM
- IC50: > 851 µM

SMILES: O=Cc1ccc(C=O)n1C1CCOC1=O (stereo unspecified)
- outcome: inactive

SMILES: CC(CO)CCNc1ncnc2c1ncn2CCC(=O)OC(C)(C)C (stereo unspecified)
- EC50: > 200 µM
- IC50: > 200 µM

SMILES: C[n+]1c2ccccc2n2c3ccccc3c(NCCCn3ccnc3)c(C#N)c21
- EC50: > 20 µM
- IC50: 1.1 µM

SMILES: CCSc1[nH]c(Nc2nc(-c3ccccc3)n(-c3ccccc3)n2)c(C(N)=O)c1C(N)=O
- outcome: inactive

SMILES: CCCCOC(=O)CSSCC(=O)OCCCC
- EC50: > 200 µM
- IC50: 51.3 µM

SMILES: COc1cc2c3c(n(C)c(=O)c2cc1OC)-c1cc2c(cc1C3=O)OCO2
- EC50: > 14.5 µM
- IC50: 0.891 µM

SMILES: CSc1nc(NC2OC(COC(C)=O)C(OC(C)=O)C(OC(C)=O)C2OC(C)=O)c(N=CC=Nc2c(NC3OC(COC(C)=O)C(OC(C)=O)C(OC(C)=O)C3OC(C)=O)nc(SC)n(C)c2=O)c(=O)n1C (stereo unspecified)
- outcome: inactive

SMILES: Nc1cccc2nnccc12
- EC50: > 200 µM
- IC50: > 200 µM

SMILES: O=C(Nc1ccn(C2CC(O)C(CO)O2)c(=O)n1)c1ccccc1 (stereo unspecified)
- EC50: > 200 µM
- IC50: > 200 µM

SMILES: Fc1ccc(C2=NOC3COC4C=CC=CC4OCC23)cc1 (stereo unspecified)
- EC50: > 120 µM
- IC50: > 120 µM

SMILES: CCOc1ccc2nc(NC(=O)C3C4CCC(O4)C3C(=O)O)sc2c1 (stereo unspecified)
- EC50: > 200 µM
- IC50: 135 µM

SMILES: NNC(=O)CC(=O)Nc1ccccc1Cl
- EC50: > 200 µM
- IC50: > 200 µM

SMILES: OCC1(CO)CSSC1
- EC50: 132 µM
- IC50: 1510 µM

SMILES: O=CC[C@H]1CCc2ccccc2C12CCC(=O)CC2
- EC50: > 74.1 µM
- IC50: > 74.1 µM

SMILES: CC(C)(O)/C1=C/C=C/CCCCCCCCCC1
- EC50: > 200 µM
- IC50: 34.7 µM

SMILES: CC(=O)O[C@H]1CC[C@@]2(C)C(=CC[C@@H]3C2CC[C@@]2(C)C3CC[C@@H]2c2nc(-c3ccccc3)cs2)C1 (stereo partly specified)
- EC50: > 52.5 µM
- IC50: > 52.5 µM

SMILES: COc1ccccc1/C=C(\C#N)C(=O)O
- EC50: > 646 µM
- IC50: 251 µM

SMILES: COc1cccc(NC(=O)/C(CC(=O)CC(c2ccccc2)c2c(O)c3ccccc3oc2=O)=N\NC(C)(C)C)c1OC (stereo unspecified)
- EC50: > 85.1 µM
- IC50: 70.8 µM

SMILES: O=C1/C(=C/c2cccs2)NC(=S)N1CN1CCCCC1
- EC50: > 200 µM
- IC50: 33.1 µM

SMILES: Oc1ccc(Nc2nc(Cl)c3[nH]cnc3n2)cc1
- EC50: > 200 µM
- IC50: 107 µM

SMILES: CCCCOC(=O)C(O)Cc1ccoc1 (stereo unspecified)
- EC50: > 200 µM
- IC50: > 200 µM

SMILES: O=C1COc2cc3c(cc2N1)SCC(=O)N3
- EC50: > 42.7 µM
- IC50: > 42.7 µM

SMILES: COc1ccc2c(CCNC(C)=O)c(C(C)=O)[nH]c2c1
- outcome: inactive
